Reference: patent publication US12637474B2, “Five-membered heteroaromatic imidazole compound and use thereof” (Hangzhou Sciwind Biosciences Co., Ltd, priority 2020, dated 2026)
Values belong to the molecule of their own block, whether it stands above or below them.

Tests used:
[1] = molecular target: T1, Human-GLP1 (Homo sapiens, UniProt P43220); experiment: In vitro cell activity test (cAMP detection, GLP-1 HEK293 cells); format: cell-based; details: HEK293 cells expressing GLP-1 target
T1 construct: the earlier reading says HEK293
Experimental: Experimental Embodiment 1. In Vitro Cell Activity Test
The cell was constructed by Shanghai WuXi AppTec New Pharmaceutical Development Co., Ltd. The detailed information is as follows.
The compound was formulated to a working concentration of 30 μM with DMSO. In this experiment, the amount of each sample used was 5 μL.
The pH value was adjusted to 7.4 and diluted to 25 mL with HBSS 1×.
Preparation of cAMP detection reagent, 250 μL of cAMP-D2 and 250 μL of anti-cAMP cryptate reagent were added to 4 mL of lysis buffer, and the mixture was mixed gently.
The compound to be tested was 3-fold diluted at 10 points, the initial concentration was 30 μM, and the dilution was completed and treated by Bravo.
The reference compound exenatide was 3-fold diluted at 10 points, the initial concentration was 500 nM, and the dilution was completed and treated by Bravo.
• 1) 100 nL of the compound was transferred to OptiPlate-384 plate using Echo. • 2) The OptiPlate-384 plate was centrifuged at 1000 rpm for 5 seconds. c) Preparation of Cell Suspension • 1) A cryopreservation tube of GLP-1 cells was quickly thawed in 37° C. warm water. • 2) The cell suspension was transferred to a Transfer 15 mL centrifuge tube, and rinsed gently with 10 mL of HBSS. • 3) The centrifuge tube was centrifuged at 1000 rpm for 1 minute at room temperature. • 4) The supernatant was discarded. • 5) The bottom cells were gently homogenized and then gently rinsed with 10 mL of HBSS, centrifuged and settled, the cells were finally re-suspend with experimental buffer. • 6) Cell density and activity were measured by Vi-cell. • 7) The concentration of GLP-1 cells was diluted to 2.0*10^5/mL with experimental buffer. • 8) […] of diluted cell suspension was transferred into OptiPlate-384 plate. • 9) The cells was incubated at room temperature for 30 minutes. d) Detection Reagent was Added: • 1) 10 μL of 800 nM gradient diluted cAMP standard was added to the empty well of OptiPlate-384 plate. • 2) 10 μL of cAMP detection reagent was added. • 3) The OptiPlate-384 plate was covered with TopSeal-A film and incubated at room temperature for 60 minutes.
TopSeal-A was removed and read by EnVision.

[2] = tested on: MDR1-MDCKII cells; experiment: Permeability test (MDR1-MDCKII monolayer cell model); format: in vitro ADME; details: 2.00 μM, low/high boundaries equivalent to 50% and 80% of human calculated Fa
Experimental: (§1) The objective of this study was to determine the bidirectional permeability and efflux rate of the samples by using MDR1-MDCKII monolayer cell model.
(§2) MDR1-MDCKII cells (11th generation) were inoculated into 96-well cell culture plate and cultured continuously for 4-7 days for transport experiment. The sample was administered in both directions at a concentration of 2.00 μM. After incubation for 150 min, the sample was collected and the content of the test product in the sample was determined by liquid chromatography-tandem mass spectrometry (LC-MS/MS).
(§3) When the administration concentration was 2.00 μM, the average apparent permeability coefficient (Papp) of the test product from the top to the basal end (A-B) direction, the average apparent permeability coefficient from the basal end to the top (B-A) direction, and the efflux ratio (ER) are shown in Table 5. Note: The boundaries of low and high permeability grades were equivalent to 50% and 80% of human “calculated Fa”. The grading criteria were based on WuXi AppTec's routine MDR1-MDCK II permeability test (test concentration was 2 μM, incubation for 2.5 hours).

[3] = as above; format: in vitro ADME; details: dog, MDCK-MDR1, incubation 150 min; for Papp B→A at 150 min, 2 μM: basal end to top; for Papp A→B at 150 min, 2 μM: top to basal end
Experimental: as §1, §2, §3

[4] = tested on: MDR1 (P-gp); experiment: as above; format: in vitro ADME; details: dog, MDCK-MDR1, incubation 150 min, read-out: Efflux rate
Experimental: as §1, §2, §3

[5] = molecular target: T2, hERG potassium channel (Homo sapiens, UniProt Q12809); experiment: hERG test (automatic patch clamp, CHO-hERG cells); format: cell-based; details: hERG current; for IC50: Qpatch; for Maximum concentration inhibition rate (%): highest test concentration 40 μM
T2 construct: expressed in transfected cells; host or cells: CHO-hERG cells
Experimental: The effects of compounds on the current of hERG potassium channel (human Ether-a-go-go Related Gene potassium channel) were measured by the automatic patch clamp method.
CHO-hERG cells were cultured in a 175 cm^2 flask, when the cell density reached 60-80%, the culture medium was removed, the cells were washed once with 7 mL of PBS (Phosphate Buffered Saline), and then detached with 3 mL of Detachin. After digestion was completed, 7 mL of culture medium was added to neutralize, then the mixture was centrifuged, the supernatant was aspirated, and then 5 mL of culture medium was added to re-suspend, ensuring 2-5×10^6/mL of cell density.
Extracellular fluid formulation (mM): 140 NaCl, 5 KCl, 1 CaCl2, 1.25 MgCl2, 10 HEPES and 10 Glucose, the pH value was adjusted to 7.4 with NaOH.
Intracellular fluid formulation (mM): 140 KCl, 1 MgCl2, 1 CaCl2, 10 EGTA and 10 HEPES, the pH value was adjusted to 7.2 with KOH.
The process of single cell high impedance sealing and whole cell mode formation were all automatically completed by Qpatch instrument, after obtaining the whole cell recording mode, the cells were clamped at −80 mV, before giving a 5-second+40 mV depolarization stimulus, a 50 millisecond −50 mV prevoltage was given first, and then repolarized to −50 mV for 5 seconds, then returned to −80 mV. This voltage stimulation was applied every 15 seconds and after recording for 2 minutes, extracellular fluid was recordings for 5 minutes, and then the administration process was started, the compound concentration was given from the lowest test concentration, each test concentration was given for 2.5 minutes, and 3 μM of Cisapride as the positive control compound was given after all concentrations were continuously given. At least 3 cells (n>3) were tested at each concentration.
The mother liquor of the compound was diluted with DMSO, and 10 μL of mother liquor of the compound was added to 20 μL of DMSO solution, and was 3-fold diluted continuously to 6 DMSO concentrations. 4 μL of compounds with 6 DMSO concentrations were added to 396 μL of extracellular fluid, 100-fold diluted to 6 intermediate concentrations, and then 80 μL of the compounds with 6 intermediate concentrations were added to 320 μL of extracellular fluid, 5-fold diluted to the final concentration to be tested. The highest test concentration was 40 μM, in a total of 6 concentrations of 40, 13.3, 4.4, 1.48, 0.494 and 0.165 μM respectively. The content of DMSO in the final test concentration was not more than 0.2%, and this concentration of DMSO had no effect on hERG potassium channel. The whole dilution process of compound preparation was completed by Bravo instrument.
The experimental data were analyzed by GraphPad Prism 5.0 software. […]

[6] = DMPK study in mice; format: in vivo; details: male C57 mice, plasma; for Oral DNAUC / bioavailability / Cmax: oral 5 mg/kg; for Oral DNAUC: DNAUC=AUCPO/Dose; for half-life / bioavailability / clearance / Vd / Cmax: mouse; for half-life: oral, 5 mg/kg; for half-life / clearance / Vd: single dose; for Vd: read-out: Vdss
Experimental: Male C57 mice were used as test animals, after a single dose, the plasma concentration of the compound was determined and the pharmacokinetic behavior was evaluated.
Three healthy adult male C57 mice were selected as oral group. In the oral group, the solvent was 20% PEG400/10% solutol/70% water, the compounds to be tested were mixed with the solvent, the mixture was votexed and sonicated to prepare a 0.5 mg/mL clear solution. After oral administration of 5 mg/kg, the whole blood of mice was collected for a certain period of time, and the plasma was prepared, the drug concentration was analyzed by LC-MS/MS, and the pharmacokinetic parameters were calculated by Phoenix WinNonlin software (Pharsight Company, USA).
Note: -- refers to untested; PEG refers to polyethylene glycol; solutol refers to polyethylene glycol-15 hydroxystearate; Cmax refers to maximum concentration; DNAUC=AUCPO/Dose, AUCPO refers to oral exposure and Dose refers to drug dose; Vdss refers to distribution volume; Cl refers to clearance rate; T1/2 refers to half-life.

[7] = DMPK study in cynomolgus monkey; format: in vivo; details: male cynomolgus monkey, plasma; for Cmax / Oral DNAUC / bioavailability: oral 3 mg/kg; for Vd: read-out: Vdss
Experimental: Male cynomolgus monkey were used as test animals, after a single dose, the plasma concentration of the compound was determined and the pharmacokinetic behavior was evaluated.
Two healthy male cynomolgus monkeys were selected as the oral group. The solvent of the oral group was 20% PEG 400+10% solutol+70% water. The compounds to be tested were mixed with the solvent, the mixture was votexed and sonicated to prepare a 0.5 mg/mL approximately clear solution. The oral dosage of cynomolgus monkeys was 3 mg/kg, after oral administration, the whole blood of cynomolgus monkeys was collected for a certain period of time, and the plasma was prepared, the drug concentration was analyzed by LC-MS/MS, and the pharmacokinetic parameters were calculated by Phoenix WinNonlin software (Pharsight Company, USA).

T2 sequence (Q12809 whole entry): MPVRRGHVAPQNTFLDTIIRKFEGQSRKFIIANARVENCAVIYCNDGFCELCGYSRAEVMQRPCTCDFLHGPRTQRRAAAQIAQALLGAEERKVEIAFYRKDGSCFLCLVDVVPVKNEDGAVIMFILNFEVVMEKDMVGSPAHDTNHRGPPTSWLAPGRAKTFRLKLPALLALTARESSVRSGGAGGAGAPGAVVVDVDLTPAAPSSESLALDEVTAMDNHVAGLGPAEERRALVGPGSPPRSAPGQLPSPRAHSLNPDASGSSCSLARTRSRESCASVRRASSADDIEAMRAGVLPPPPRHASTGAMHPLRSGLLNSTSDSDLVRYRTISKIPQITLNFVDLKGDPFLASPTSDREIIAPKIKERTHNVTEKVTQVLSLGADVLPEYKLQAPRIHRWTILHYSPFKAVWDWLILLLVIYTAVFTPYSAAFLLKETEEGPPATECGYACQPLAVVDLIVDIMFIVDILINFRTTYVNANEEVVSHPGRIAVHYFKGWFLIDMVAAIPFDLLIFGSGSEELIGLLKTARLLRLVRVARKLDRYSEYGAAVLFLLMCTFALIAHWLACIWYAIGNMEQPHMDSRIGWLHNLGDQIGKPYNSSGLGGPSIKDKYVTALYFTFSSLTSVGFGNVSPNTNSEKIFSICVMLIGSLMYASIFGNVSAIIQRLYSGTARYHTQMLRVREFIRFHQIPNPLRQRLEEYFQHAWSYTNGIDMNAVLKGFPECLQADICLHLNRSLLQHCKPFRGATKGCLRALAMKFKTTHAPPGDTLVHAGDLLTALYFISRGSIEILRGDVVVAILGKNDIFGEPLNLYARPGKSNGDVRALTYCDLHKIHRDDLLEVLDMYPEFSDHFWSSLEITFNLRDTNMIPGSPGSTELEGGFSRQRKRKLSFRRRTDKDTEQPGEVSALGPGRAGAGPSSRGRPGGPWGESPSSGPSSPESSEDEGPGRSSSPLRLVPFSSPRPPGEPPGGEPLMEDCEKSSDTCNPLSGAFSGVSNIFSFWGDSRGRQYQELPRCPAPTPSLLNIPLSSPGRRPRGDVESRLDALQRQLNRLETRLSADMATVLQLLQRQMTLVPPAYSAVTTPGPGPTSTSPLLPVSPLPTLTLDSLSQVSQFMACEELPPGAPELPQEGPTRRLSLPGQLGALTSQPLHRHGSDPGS
T1 sequence (P43220 24-463): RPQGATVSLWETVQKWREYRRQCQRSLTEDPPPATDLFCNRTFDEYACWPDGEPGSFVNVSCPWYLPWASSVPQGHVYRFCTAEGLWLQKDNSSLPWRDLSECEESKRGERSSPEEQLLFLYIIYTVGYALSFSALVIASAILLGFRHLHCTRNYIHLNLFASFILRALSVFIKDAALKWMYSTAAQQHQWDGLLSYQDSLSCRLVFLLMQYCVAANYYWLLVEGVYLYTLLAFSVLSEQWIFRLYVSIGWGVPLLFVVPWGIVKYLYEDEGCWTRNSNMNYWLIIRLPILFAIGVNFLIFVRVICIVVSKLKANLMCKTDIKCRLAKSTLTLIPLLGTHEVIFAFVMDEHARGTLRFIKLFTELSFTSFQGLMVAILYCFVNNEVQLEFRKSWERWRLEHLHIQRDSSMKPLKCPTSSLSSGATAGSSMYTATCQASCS

- EC50 [1]: 1.64 nM
Compound: O=C(O)c1cc2c(nc(CN3CC=C(c4ccc(F)c(OCc5ccc(Cl)cc5F)n4)CC3)n2C[C@@H]2CCO2)s1 [WXA015]

- EC50 [1]: 1.9 nM
Compound: N#Cc1ccc(COc2cccc(C3CCN(Cc4nc5cc(C(=O)O)sc5n4C[C@@H]4CCO4)CC3)n2)c(F)c1 [WXA004]

- EC50 [1]: 2.46 nM
Compound: Cc1c(C(=O)O)sc2nc(CN3CC=C(c4cccc(OCc5ccc(Cl)cc5F)n4)CC3)n(C[C@@H]3CCO3)c12 [WXA008]

- EC50 [1]: 1.94 nM
Compound: O=C(O)c1cc2c(nc(CN3CC=C(c4cccc(OCc5ccc(Cl)cc5F)c4)CC3)n2C[C@@H]2CCO2)s1 [WXA011]

- EC50 [1]: 2.7 nM
Compound: N#Cc1ccc(COc2cccc(C3=CCN(Cc4nc5cc(C(=O)O)sc5n4C[C@@H]4CCO4)CC3)n2)c(F)c1 [WXA002]

- EC50 [1]: 0.67 nM
- Rank (permeability grade) [2]: Medium
- Papp B→A at 150 min, 2 μM [3]: 3.87 ×10⁻⁶ cm/s
- Papp A→B at 150 min, 2 μM [3]: 2.53 ×10⁻⁶ cm/s
- efflux ratio at 150 min, 2 μM [4]: 1.53
- Oral DNAUC [6]: 647.4 nM.h/mpk
- half-life [6]: 2.07 h
- bioavailability [6]: 220%
- clearance [6]: 104 mL/min/kg
- Vd [6]: 1.87 L/kg
- Cmax [6]: 1760 nM
- Cmax [7]: 28.3 nM
- Oral DNAUC [7]: 74 nM.h/mpk
- bioavailability [7]: 5.6%
- clearance ([7]; single dose): 22.7 mL/min/kg
- Vd ([7]; single dose): 0.73 L/kg
Compound: N#Cc1ccc(COc2cccc(C3=CCN(Cc4nc5sc(C(=O)O)cc5n4C[C@@H]4CCO4)CC3)n2)c(F)c1 [WXA001]
- IC50 [5]: > 40000 nM
- Maximum concentration inhibition rate (%) [5]: 30.4%

- EC50 [1]: 2.46 nM
Compound: N#Cc1ccc(COc2cccc(C3=CCN(Cc4nc5sc(C(=O)O)cc5n4C[C@@H]4CCO4)CC3)c2)c(F)c1 [WXA013]

- Rank (permeability grade) [2]: High
- Papp B→A at 150 min, 2 μM [3]: 8.49 ×10⁻⁶ cm/s
- Papp A→B at 150 min, 2 μM [3]: 7.19 ×10⁻⁶ cm/s
- efflux ratio at 150 min, 2 μM [4]: 1.18
- Oral DNAUC [6]: 301.8 nM.h/mpk
- half-life [6]: 2.47 h
- bioavailability [6]: 63%
- clearance [6]: 63.6 mL/min/kg
- Vd [6]: 2.84 L/kg
- Cmax [6]: 835 nM
- Cmax [7]: 245 nM
- Oral DNAUC [7]: 889 nM.h/mpk
- half-life ([7]; oral, 3 mg/kg, single dose): 4.94 h
- bioavailability [7]: 31%
- clearance ([7]; single dose): 10.7 mL/min/kg
- Vd ([7]; single dose): 0.59 L/kg
Compound: O=C(O)c1cc2c(nc(CN3CC=C(c4cccc(OCc5ccc(Cl)cc5F)n4)CC3)n2C[C@@H]2CCO2)s1 [WXA005]
- IC50 [5]: > 40000 nM
- Maximum concentration inhibition rate (%) [5]: 33.1%

- EC50 [1]: 9.6 nM
Compound: N#Cc1ccc(COc2cccc(C3=CCN(Cc4nc5cc(C(=O)O)sc5n4C[C@@H]4CCO4)CC3)c2)c(F)c1 [WXA014]

- EC50 [1]: 0.2 nM
Compound: O=C(O)c1sc2nc(CN3CC=C(c4cccc(OCc5ccc(Cl)cc5F)n4)CC3)n(C[C@@H]3CCO3)c2c1F [WXA007]

- EC50 [1]: 9.4 nM
Compound: O=C(O)c1cc2nc(CN3CC=C(c4cccc(OCc5ccc(Cl)cc5F)c4)CC3)n(C[C@@H]3CCO3)c2s1 [WXA012]

- EC50 [1]: 1.07 nM
Compound: N#Cc1ccc(COc2cccc(C3CCN(Cc4nc5sc(C(=O)O)cc5n4C[C@@H]4CCO4)CC3)n2)c(F)c1 [WXA003]

- EC50 [1]: 3.52 nM
Compound: O=C(O)c1cc2nc(CN3CC=C(c4ccc(F)c(OCc5ccc(Cl)cc5F)n4)CC3)n(C[C@@H]3CCO3)c2s1 [WXA016]

- EC50 [1]: 1.44 nM
- Oral DNAUC [6]: 307.4 nM.h/mpk
- half-life [6]: 1.43 h
- Cmax [6]: 865 nM
Compound: O=C(O)c1cc2nc(CN3CC=C(c4cccc(OCc5ccc(Cl)cc5F)n4)CC3)n(C[C@@H]3CCO3)c2s1 [WXA006]
